Experimental data from US4153710A, “N-(4-[2-(pyrazole-1-carbonamide)-ethyl]-benzenesulphonyl)-urea” (Starogardzkie Zaklady Farmaceutyczne POLFA, priority 1976, dated 1979).
pKi: −log10 of the molar value.

Assays:
[1] = Oral toxicity in rats (LD50); details: rat, in vivo
[2] = test system: blood-glucose concentration; experiment: ED30 oral hypoglycemic dose in rabbits (Table 2); assay type: in vivo; details: Oryctolagus cuniculus, read-out: Effective oral doses ED30
Experimental: (§1) The hypoglycemic activity of N-{4-[2-(pyrazole-1-carbonamide)-ethyl]-benzenesulphonyl}-ureas prepared according to the present invention can be noticed after their oral administration to mice, rats, rabbits and people and when determining the glucose concentration in blood with a known enzymatic method using glucose oxidase.
(§2) (Table 2). […] It has been observed that even 9 hours after the administration of one dose of SPC-5002 to rats, the glucose level in blood was decreased, whereas in the case of Glibornuride the glucose level comes back to its normal value in 6 hours from the time of the administration.

[3] = test system: blood-glucose concentration; experiment: ED30 oral hypoglycemic dose in mice (Table 2); assay type: in vivo; details: Mus musculus, oral, read-out: Effective oral doses ED30
Experimental: as §1, §2

glucose concentration [4] = experiment: Blood glucose in normal men after a meal (Table 8); assay type: in vivo; details: for blood-glycose level decrease: normal men after meal; for Glucose concentration / % of changes in glucose concentration: meal, oral 10 mg
Experimental: as §1
(§3) When administered to normal men volunteers it has been stated that 60 minutes after the administration of SPC-5002 a 5 mg oral dose causes the decrease in blood-glucose of 28% in comparision to the starting value and after 90 minutes it reaches 33% (Table 7). Whereas Glibornuride employed in a dose 2.5 times as big on peak of its activity decreases the glucose blood level only of 19%. It can clearly be noticed that there is a positive correlation between the glycemic and insulin level curves. Both examined preparations cause a significant decrease in free fatty acids in blood. […] 60 and 90 minutes after the SPC-5002 administration, the blood-glycose level is decreased to 33 and 52% while in the Placebo group it is maintained in the range of 13-14%.
The comparison of glucose concentration changes in voluntary-normal men
eaten a meal and the oral administration of 10 mg of SPC-5002 or Placebo

[5] = Oral toxicity in mice (LD50); details: mouse, in vivo
[6] = Acute, subacute and protracted toxicity (6 months); assay type: in vivo
[7] = test system: oxidizing phosphorylation in mitochondria of a rat's liver; experiment: Oxidizing phosphorylation of rat liver mitochondria; assay type: biochemical
Experimental: 2-oxoglutaran 2 mM, ADP 1 mM, mitochondria | protein 4 mg/m. […] The | oxidizing phosphorylation speed was determined by means of the measuremen | of hydrogen ion consumption. The calcium transmission to mitochondria was […]

[8] = test system: blood-glucose concentration; experiment: Blood-glucose time course up to 24 hours in rabbits (Table 4); assay type: in vivo; details: for glucose concentration in blood, average: oral 5 mg/kg
Experimental: The hypoglycemic activity of N-{4-[2-(pyrazole-1-carbonamide)-ethyl]-benzenesulphonyl}-ureas prepared according to the present invention can be noticed after their oral administration to mice, rats, rabbits and people and when determining the glucose concentration in blood with a known enzymatic method using glucose oxidase. […]
The comparison of SPC-5002 and Glibornuride effect on changes in
concentration of rabbits in time up to 24 hours from the moment of the
in an oral dose containing 5 mg/kg body weight

[9] = test system: blood-glucose concentration; experiment: Decrease in blood-glucose concentration in rats after oral dose (Table 1; ED30 rats Table 2); assay type: in vivo; details: Rattus norvegicus, oral, read-out: Effective oral doses ED30
Method in brief: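 Compounds were dosed orally to rats, and blood glucose was measured enzymatically with glucose oxidase. Effects are expressed as decrease in blood glucose, with ED30 as the dose effective for a 30% reduction.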

[10] = test system: free fatty acids concentration; experiment: Free fatty acids in normal men volunteers (Table 7); assay type: in vivo; details: oral 5 mg SPC-5002 or 12.5 mg Glibornuride
Experimental: as §3
(§4) The comparison of glucose, insulin and free fatty acids concentration in
(§5) normal men after the oral administration of 5 mg of SPC-5002 or 12.5 mg

glucose concentration [11] = experiment: Blood glucose in normal men volunteers (Table 7); assay type: in vivo; details: for decrease in blood-glucose vs starting value: 5 mg oral; for Glucose concentration: oral 5 mg SPC-5002 or 12.5 mg Glibornuride
Experimental: as §1, §3, §4, §5

insulin concentration = experiment: Insulin in normal men volunteers (Table 7); assay type: in vivo; details: oral 5 mg SPC-5002 or 12.5 mg Glibornuride
Experimental: as §3, §4, §5

[12] = test system: oxygen consumption in mitochondria of a rat's liver; experiment: Oxygen consumption of rat liver mitochondria; assay type: biochemical
Experimental: 2-oxoglutaran 2 mM, ADP 1 mM, mitochondria | protein 4 mg/m. […] The

Cc1ccn(C(=O)NCCc2ccc(S(=O)(=O)NC(=O)NC3CCCCC3)cc2)n1 [SPC-5002, N-{4-[2-(3-methylpyrazole-1-carbonamide)-ethyl]-benzenesulphonyl}-N'-cyclohexylourea]
LD50 [1]: > 15000 mg/kg
ED30 [2]: 5.5 mg/kg
ED30 [3]: 1.9 mg/kg
blood-glycose level decrease (glucose concentration [4]; 60 minutes): 33%
blood-glycose level decrease (glucose concentration [4]; 90 minutes): 52%
glucose increase vs starting value (glucose concentration [4]; normal men, 30 minutes after the meal): 34%
Glucose concentration (glucose concentration [4]; normal men, 0 mins (empty stomach)): 89 mg/100 cc
% of changes in glucose concentration (glucose concentration [4]; normal men, 30 mins): +34%
Glucose concentration (glucose concentration [4]; normal men, 30 mins): 119 mg/100 cc
% of changes in glucose concentration (glucose concentration [4]; normal men, 60 mins): -33%
Glucose concentration (glucose concentration [4]; normal men, 60 mins): 60 mg/100 cc
% of changes in glucose concentration (glucose concentration [4]; normal men, 90 mins): -52%
Glucose concentration (glucose concentration [4]; normal men, 90 mins): 43 mg/100 cc
% of changes in glucose concentration (glucose concentration [4]; normal men, 120 mins): -21%
Glucose concentration (glucose concentration [4]; normal men, 120 mins): 70 mg/100 cc
% of changes in glucose concentration (glucose concentration [4]; normal men, 180 mins): 0%
Glucose concentration (glucose concentration [4]; normal men, 180 mins): 89 mg/100 cc
LD50 [5]: > 20000 mg/kg
changes in haematopoietic system ([6]; 6 months administration): No changes in the haematopoietic system
effect on liver and kidneys ([6]; 6 months administration): did not handicap the activities of the liver and kidneys
general number of white blood corpuscles ([6]; 6 months administration): did not influence the general number of white blood corpuscles
toxicity ([6]; acute, subacute and protracted toxicity): extremely low toxicity
body weight, consumption of food and water ([6]; compared with control group): did not reveal any differences between the control group and the group under examination
effect on oxidizing phosphorylation ([7]; 0.05 nM): no effect
% of inhibition, oxidizing phosphorylation ([7]; concentration 0.05 n M): 0%
% of inhibition, oxidizing phosphorylation ([7]; concentration 0.1 n M): 15%
% of inhibition, oxidizing phosphorylation ([7]; concentration 0.3 n M): 21%
% of inhibition, oxidizing phosphorylation ([7]; concentration 0.5 n M): 38%
% of inhibition, oxidizing phosphorylation ([7]; concentration 0.7 n M): 63%
% of inhibition, oxidizing phosphorylation ([7]; concentration 1.0 n M): 74%
pKi ([7]; rat liver mitochondria): 3.22
effectiveness and duration relative to Glibornuride [8]: more effective and longer activity in comparison to Glibornuride
glucose concentration in blood, average ([8]; 0 h): 71 mg/100 cc
glucose concentration in blood, average ([8]; 0.5 h): 57 mg/100 cc
glucose concentration in blood, average ([8]; 1 h): 59 mg/100 cc
glucose concentration in blood, average ([8]; 3 h): 63 mg/100 cc
glucose concentration in blood, average ([8]; 6 h): 62 mg/100 cc
glucose concentration in blood, average ([8]; 9 h): 62 mg/100 cc
glucose concentration in blood, average ([8]; 24 h): 70 mg/100 cc
ED30 [9]: 2.2 mg/kg
Free fatty acids concentration ([10]; 0 mins (empty stomach)): 0.63 mEq/1000 cc
Free fatty acids concentration ([10]; 30 mins): 0.48 mEq/1000 cc
Free fatty acids concentration ([10]; 60 mins): 0.46 mEq/1000 cc
Free fatty acids concentration ([10]; 90 mins): 0.48 mEq/1000 cc
Free fatty acids concentration ([10]; 120 mins): 0.51 mEq/1000 cc
Free fatty acids concentration ([10]; 180 mins): 0.52 mEq/1000 cc
decrease in blood-glucose vs starting value (glucose concentration [11]; 60 minutes): 28%
decrease in blood-glucose vs starting value (glucose concentration [11]; 90 minutes): 33%
Glucose concentration (glucose concentration [11]; 0 mins (empty stomach)): 96.8 mg/100 cc
Glucose concentration (glucose concentration [11]; 30 mins): 88.5 mg/100 cc
Glucose concentration (glucose concentration [11]; 60 mins): 69.0 mg/100 cc
Glucose concentration (glucose concentration [11]; 90 mins): 65.5 mg/100 cc
Glucose concentration (glucose concentration [11]; 120 mins): 76.5 mg/100 cc
Glucose concentration (glucose concentration [11]; 180 mins): 79.7 mg/100 cc
Insulin concentration (insulin concentration; 0 mins (empty stomach)): 4.0 μU/cc
Insulin concentration (insulin concentration; 30 mins): 9.2 μU/cc
Insulin concentration (insulin concentration; 60 mins): 13.5 μU/cc
Insulin concentration (insulin concentration; 90 mins): 7.3 μU/cc
Insulin concentration (insulin concentration; 120 mins): 5.0 μU/cc
Insulin concentration (insulin concentration; 180 mins): 3.2 μU/cc
effect on oxidation ([12]; 0.05 nM): no effect
% of inhibition, oxygen consumption ([12]; concentration 0.05 n M): 0%
% of inhibition, oxygen consumption ([12]; concentration 0.1 n M): 12%
% of inhibition, oxygen consumption ([12]; concentration 0.3 n M): 21%
% of inhibition, oxygen consumption ([12]; concentration 0.5 n M): 34%
% of inhibition, oxygen consumption ([12]; concentration 0.7 n M): 47%
% of inhibition, oxygen consumption ([12]; concentration 1.0 n M): 69%
pKi ([12]; rat liver mitochondria): 3.12
